Test results: patent US11046954B2, “Targeted protein degradation to attenuate adoptive T-cell therapy associated adverse inflammatory responses” (Dana-Farber Cancer Institute, Inc., priority 2015, dated 2021)
Entries after “also recorded” stand apart in the source; their conditions may differ.

Key:
Format in all cases: cell-based
[1] = system: downstream surrogates of KRAS signaling (e.g. pMEK and pAKT); assay: Immunoblot of NIH3T3 cells expressing FKBP*-KRASG12V: downstream KRAS signaling
Procedure: (§1) FIG. 19 is an immunoblot of NIH3T3 cells expressing KRASG12V allele fused to FKBP* in the N-terminus or C-terminus. Cells were treated with 500 nM dFKBP7 for the indicated time. Cells were harvested and immunoblotted to measure degradation of FKBP*-KRASG12V and downstream surrogates of KRAS signaling (e.g. pMEK and pAKT).
(§2) FIG. 20 is an immunoblot of NIH3T3 cells expressing FKBP* fused to the N-terminus of KRASG12V treated with luM of the indicated dFKBP heterobifunctional compounds for 24 hours. Cells were harvested and immunoblotted to measure degradation of FKBP*-KRASG12V and downstream surrogates of KRAS signaling (e.g. pMEK and pAKT).
(§3) FIG. 21 is an immunoblot of NIH3T3 cells expressing FKBP* fused to the N-terminus of KRASG12V treated with the indicated concentrations of dFKBP13 for 24 hours. Cells were harvested and immunoblotted to measure degradation of FKBP*-KRASG12V and downstream surrogates of KRAS signaling (e.g. pMEK and pAKT).
(§4) FIG. 22 is an immunoblot of NIH3T3 cells expressing FKBP* fused to the N-terminus of KRASG12V treated with luM dFKBP13 for the indicated time. Cells were harvested and immunoblotted to measure degradation of FKBP*-KRASG12V and downstream surrogates of KRAS signaling (e.g. pMEK and pAKT).
(§5) Cells were treated with 500 nM dFKBP7 for the indicated time. Cells were harvested and immunoblotted to measure degradation of FKBP*-KRAS and downstream surrogates of KRAS signaling (e.g. pMEK and pAKT).
(§6) Western blotting of NIH3T3 cells expressing dTAG-KRASG12V were treated with 1 μM of the indicated dFKBP heterobifunctional compounds for 24 hours. Cells were harvested and immunoblotted to measure degradation of FKBP*-KRAS and downstream surrogates of KRAS signaling (e.g. pMEK and pAKT).
(§7) Western blotting of NIH3T3 cells expressing FKBP* fused to the N-terminus of KRAS treated with the indicated concentrations of dFKBP13 for 24 hours. Cells were harvested and immunoblotted to measure degradation of FKBP*-KRAS and downstream surrogates of KRAS signaling (e.g. pMEK and pAKT).
(§8) To evaluate the kinetic control of targeted degradation of dTAG-KRAS, dFKBP13 was administered by increased duration. Western blotting of NIH3T3 cells expressing FKBP* fused to the N-terminus of KRAS treated with 1 μM dFKBP13 for the indicated time. Cells were harvested and immunoblotted to measure degradation of FKBP*-KRAS and downstream surrogates of KRAS signaling (e.g. pMEK and pAKT).

FKBP12WT = target: T1, FKBP12WT (Homo sapiens, UniProt P62942); assay: Immunoblot of 293FT cells (CRBN-WT or CRBN−/−) expressing FKBP12WT; conditions: for degradation of FKBP12WT or endogenous FKBP12: isogenic 293FT CRBN-WT or CRBN−/−, 100 nM, 4 hours
T1 construct: HA; expressed in transfected cells; host or cells: 293FT cells (CRBN-WT or CRBN-/-)
Procedure: FIG. 6 is an immunoblot of cells treated with bi-functional molecules described in the present invention. 293FT cells (CRBN-WT or CRBN−/−) expressing either HA-tagged FKBP12WT or FKBP* (also referred to as dFKBP12* herein) were treated with indicated concentrations of dFKBP7 for 4 hours.
Isogenic 293FT cells (CRBN-WT or CRBN−/−) expressing either FKBP12WT or FKBP* were treated with 100 nM of either dFKBP7 or dFKBP13 for 4 hours.
The dTAG is predicated on the selectivity of FKBP* specific ligands over endogenous, wild type FKBP. […] An immunoblot of cells treated with bi-functional molecules described in the present invention was performed. 293FT cells (CRBN-WT or CRBN−/−) expressing either HA-tagged FKBP12WT or FKBP* were treated with indicated concentrations of dFKBP7 for 4 hours.
Isogenic 293FT cells (CRBN-WT or CRBN−/−) were engineered to express either FKBP12WT or FKBP*. Cells were treated with 100 nM of either dFKBP7 or dFKBP13 for 4 hours before lysates were prepared for western immunoblot analysis.

FKBP*-KRASG12V = assay: Immunoblot of NIH3T3 cells expressing FKBP* fused to KRASG12V: degradation
Procedure: as §1, §2, §3, §4, §5, §6, §7, §8

T1 sequence (P62942 whole entry): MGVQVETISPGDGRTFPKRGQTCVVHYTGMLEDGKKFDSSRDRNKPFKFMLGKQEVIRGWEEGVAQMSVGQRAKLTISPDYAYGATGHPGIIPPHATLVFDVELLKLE

Row | SMILES | downstream p-AKT signal ([1]; NIH3T3 N-terminal dTAG-KRAS, 500 nM dFKBP7, indicated time) | degradation of HA-tagged FKBP12WT (FKBP12WT; 293FT CRBN-WT or CRBN−/−, indicated concentrations of dFKBP7, 4 hours) | degradation of FKBP12WT or endogenous FKBP12 (FKBP12WT) | degradation of FKBP*-KRASG12V (FKBP*-KRASG12V; 500 nM dFKBP7, indicated time, N-terminal fusion) | inhibition of downstream signaling (pMEK, pAKT) ([1]; NIH3T3 FKBP*-KRASG12V, 1 μM, 24 hours) | IC50 ([1]; NIH3T3 FKBP*-KRASG12V, indicated concentrations of dFKBP13, 24 hours, read-out: IC50, inhibits downstream signaling) [nM] | time at which degradation of FKBP*-KRASG12V and inhibition of downstream signaling are seen (FKBP*-KRASG12V; 1 μM dFKBP13, indicated time) [h] | degradation of FKBP*-KRASG12V (FKBP*-KRASG12V; 1 μM, 24 hours) | degradation of FKBP*-KRASG12V (FKBP*-KRASG12V; indicated concentrations of dFKBP13, 24 hours)
1 | CC[C@H](C(=O)N1CCCC[C@H]1C(=O)O[C@H](CCc1ccc(OC)c(OC)c1)c1cccc(OCC(=O)NCCCOCCOCCOCCCNC(=O)COc2cccc3c2C(=O)N(C2CCC(=O)NC2=O)C3=O)c1)c1cc(OC)c(OC)c(OC)c1 (stereo partly shown) [dFKBP7] | downstream decrease in p-AKT signal | not FKBPWT | not FKBP12WT or endogenous FKBP12 | potent degradation; also recorded: N-terminal FKBP* fusions are active and degraded |  |  |  |  | 
2 | CC[C@H](C(=O)N1CCCC[C@H]1C(=O)O[C@H](CCc1ccc(OC)c(OC)c1)c1cccc(OCC(=O)NCCCCCCOc2cccc3c2C(=O)N(C2CCC(=O)NC2=O)C3=O)c1)c1cc(OC)c(OC)c(OC)c1 (stereo partly shown) [dFKBP13] |  |  | not FKBP12WT or endogenous FKBP12 |  | inhibition of downstream signaling | > 100 | ≤ 1 | potent degradation | potently degrades dTAG-KRAS at nanomolar concentrations; also recorded: potent degradation
